This note sets out measurements from patent publication US20240368123A1, “AROMATIC RING-CONTAINING BIOLOGICAL ANTAGONIST, AND PREPARATION METHOD THEREFOR AND USE THEREOF” (SHANGHAI HANSOH BIOMEDICAL CO., LTD., priority 2021, published 2024).

Molecules are shown by their SMILES.

Data set [1] addresses T1, CYP450 enzyme subtype 3A4-M (Homo sapiens, UniProt P08684).
T1 construct: Human liver microsome incubation system was used; from tissue; host or cells: human liver microsomes
Description: CYP enzyme single point inhibition test, 3A4-M. Format: in vitro ADME. To be noted: human liver microsomes, single point method. On the procedure: (§1) Human liver microsome incubation system was used, and the single point method was used to quickly predict the inhibition on CYP450 enzyme subtypes (1A2, 2C19, 2D6, 3A4-M, and 3A4-T) by compounds.
(§2) For 2.5 mM NADPH, 4.165 mg of NADPH (reduced nicotinamide adenine dinucleotide phosphate) was weighed and 100 mM phosphate buffer was added to 2 mL. For 0.25 mg/mL microsomes, 50 μL of 20 mg/mL microsomes was added to 4 mL of 100 mM phosphate buffer and mixed evenly.
(§3) The test example compound was weighed, diluted to 10 mM with DMSO, and then diluted to 100 μM with 100 mM phosphate buffer.
(§4) • 1. 40 μL of liver microsomes, 10 μL of substrate, and 10 μL of test compound were added in a 96-well plate and the mixture was pre-incubated for 3 min. • 2. 40 μL of NADPH was added. • 3. At 20 min, 300 μL of acetonitrile stop solution containing internal standard was added. • 4. The mixture was centrifuged and the sample was loaded.

A short description of data set [2]: Liver microsomal metabolism stability test, human. The data set is classed as in vitro ADME. Conditions: for half-life at 1 μM: human liver microsomes 0.5 mg/mL, compound 1 μM, NADPH/UDPGA; for Remaining rate: human liver microsomes, 60 min. On the procedure:
(§5) The purpose of this experiment was to detect the stability of the example compounds in liver microsomes of rats, dogs and humans.
(§6) • Formulation of working solution of compounds: compound stock solution was added to phosphate buffer to a final concentration of 20 μM.
(§7) Dilution was performed with 100 mM phosphate buffer to a final concentration of 0.625 mg/mL.
(§8) NADPH (reduced nicotinamide adenine dinucleotide phosphate) and UDPGA (uridine diphosphate glucuronic acid) were weighed, 100 mM phosphate buffer was added, and the final concentration was 20 mM.
(§9) 1 mg of Alamethicin was weighed, and 200 μL of DMSO was added to formulate a 5 mg/mL solution. Then dilution was performed with phosphate buffer to a final concentration of 50 μg/mL.
(§10) Stop solution: the stop solution contains 100 ng/mL labetalol hydrochloride and 400 ng/mL tolbutamide and cold acetonitrile as internal standard.
(§11) 400 μL of formulated liver microsomes, 25 μL of compound working solution and 25 μL of Alamethicin were added in sequence to the 96-well plate, and pre-incubated at 37° C. for 10 min. Then 50 μL of formulated NADPH/UDPGA was added to start the reaction and the mixture was incubated at 37° C. The total volume of the reaction system was 500 μL. The final contents of each component are as follows:
(§12) • Instrument: Shimadzu LC-30 AD; • Chromatographic column: XBridge® C18 (50*4.6 mm, 5 μm particle size); • Mobile phase: A: 0.1% formic acid solution, B: methanol Wash gradient: 0.2-1.6 min 5% A to 95% A, 3.0-3.1 min 95% A to 5% A Run time: 4.0 min.
(§13) • Instrument: API5500 liquid chromatography mass spectrometer, AB Sciex; • Ion source: electrospray ionization source (ESI); • Drying gas: N2, temperature 500° C.; • Electrospray voltage: 5000 V; • Detection mode: positive ion detection; • Scanning mode: reaction monitoring (MRM) mode.

For data set [3], the target named is T2, CYP450 enzyme subtype 3A4-T (Homo sapiens, UniProt P08684).
T2 construct: Human liver microsome incubation system was used; from tissue; host or cells: human liver microsomes
T2 sequence (P08684 whole entry): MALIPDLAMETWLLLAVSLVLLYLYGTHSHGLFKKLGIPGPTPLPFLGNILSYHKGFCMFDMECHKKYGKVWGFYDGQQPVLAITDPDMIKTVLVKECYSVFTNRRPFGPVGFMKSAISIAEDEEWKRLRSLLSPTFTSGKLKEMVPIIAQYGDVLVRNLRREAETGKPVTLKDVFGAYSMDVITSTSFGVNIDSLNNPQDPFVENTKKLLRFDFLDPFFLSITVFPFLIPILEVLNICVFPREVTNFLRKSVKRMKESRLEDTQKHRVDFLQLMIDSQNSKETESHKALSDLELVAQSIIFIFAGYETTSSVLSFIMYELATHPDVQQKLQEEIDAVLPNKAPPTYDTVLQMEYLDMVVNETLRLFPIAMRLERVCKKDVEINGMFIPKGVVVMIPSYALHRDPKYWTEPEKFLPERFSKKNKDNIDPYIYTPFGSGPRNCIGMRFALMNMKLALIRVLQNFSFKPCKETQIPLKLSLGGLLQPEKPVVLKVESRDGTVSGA
Put plainly: CYP enzyme single point inhibition test, 3A4-T. The data set is classed as in vitro ADME. To be noted: human liver microsomes, single point method. The procedure:
as §1, §2, §3, §4

The nature of data set [4]: Liver microsomal metabolism stability test, dog. The data set is classed as in vitro ADME. Conditions: for half-life at 1 μM: dog liver microsomes 0.5 mg/mL, compound 1 μM, NADPH/UDPGA; for Remaining rate: dog liver microsomes, 60 min. On the procedure: as §5, §6, §7, §8, §9, §10, §11, §12, §13
Data set [5] concerns the target T3, CYP450 enzyme subtype 2D6 (Homo sapiens, UniProt P10635).
T3 construct: Human liver microsome incubation system was used; from tissue; host or cells: human liver microsomes
Put plainly: CYP enzyme single point inhibition test, 2D6. The data set is classed as in vitro ADME. Conditions: human liver microsomes, single point method. The procedure: as §1, §2, §3, §4

The target of data set [6] is T4, CYP450 enzyme subtype 1A2 (Homo sapiens, UniProt P05177).
T4 construct: Human liver microsome incubation system was used; from tissue; host or cells: human liver microsomes
T4 sequence (P05177 1-516): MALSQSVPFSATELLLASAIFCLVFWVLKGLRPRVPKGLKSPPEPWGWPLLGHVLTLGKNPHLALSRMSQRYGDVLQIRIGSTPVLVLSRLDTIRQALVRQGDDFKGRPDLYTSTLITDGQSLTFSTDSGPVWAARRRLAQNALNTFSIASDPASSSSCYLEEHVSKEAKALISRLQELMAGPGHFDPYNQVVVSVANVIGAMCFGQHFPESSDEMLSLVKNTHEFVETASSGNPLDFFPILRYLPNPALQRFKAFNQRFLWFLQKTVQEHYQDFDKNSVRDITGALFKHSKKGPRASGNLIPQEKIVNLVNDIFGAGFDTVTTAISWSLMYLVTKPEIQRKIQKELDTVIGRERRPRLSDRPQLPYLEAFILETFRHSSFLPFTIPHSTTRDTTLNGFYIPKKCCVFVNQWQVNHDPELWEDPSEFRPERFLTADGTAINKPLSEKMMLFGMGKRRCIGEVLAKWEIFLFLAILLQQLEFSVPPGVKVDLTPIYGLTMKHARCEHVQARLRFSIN
Put plainly: CYP enzyme single point inhibition test, 1A2. The data set is classed as in vitro ADME. Conditions: human liver microsomes, single point method. On the procedure:
as §1, §2, §3, §4

The target in data set [7] is T5, CYP450 enzyme subtype 2C19 (Homo sapiens, UniProt P33261).
T5 construct: Human liver microsome incubation system was used; from tissue; host or cells: human liver microsomes
T5 sequence (P33261 whole entry): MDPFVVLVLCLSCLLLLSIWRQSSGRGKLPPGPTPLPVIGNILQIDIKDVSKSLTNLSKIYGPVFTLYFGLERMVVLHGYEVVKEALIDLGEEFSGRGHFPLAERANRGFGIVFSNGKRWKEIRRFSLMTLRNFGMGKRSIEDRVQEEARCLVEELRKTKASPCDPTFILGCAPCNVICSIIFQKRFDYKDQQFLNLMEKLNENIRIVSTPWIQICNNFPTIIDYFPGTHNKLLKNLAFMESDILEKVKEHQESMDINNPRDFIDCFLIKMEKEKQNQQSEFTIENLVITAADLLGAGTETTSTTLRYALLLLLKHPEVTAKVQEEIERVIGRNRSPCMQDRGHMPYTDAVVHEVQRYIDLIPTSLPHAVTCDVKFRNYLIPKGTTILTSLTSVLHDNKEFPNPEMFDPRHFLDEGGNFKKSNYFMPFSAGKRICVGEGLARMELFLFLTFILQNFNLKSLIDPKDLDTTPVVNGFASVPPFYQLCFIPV
Description: CYP enzyme single point inhibition test, 2C19. Format: in vitro ADME. To be noted: human liver microsomes, single point method. On the procedure:
as §1, §2, §3, §4

A short description of data set [8]: Liver microsomal metabolism stability test, rat. Format: in vitro ADME. Conditions: for half-life at 1 μM: rat liver microsomes 0.5 mg/mL, compound 1 μM, NADPH/UDPGA; for Remaining rate: rat liver microsomes, 60 min. On the procedure:
as §5, §6, §7, §8, §9, §10, §11, §12, §13

The subject of data set [9] is spontaneously hypertensive rat (SHR) model. Description: Pharmacodynamic evaluation on blood pressure in spontaneously hypertensive rats. Format: in vivo. To be noted: P.O, 30 mpk, 1-8 h after administration, P<0.05. An excerpt:
This experiment used a spontaneously hypertensive rat (SHR) model to evaluate the pharmacodynamic effect of the test compounds on the blood pressure and heart rate of the model.
Kent Scientific CODA non-invasive blood pressure system.
Spontaneously hypertensive rats (SHR) were provided by Beijing Vital River Laboratory Animal Technology Co., Ltd., male, 150-200 g, 13-15 weeks old, 50 rats.
After animals arrived at the experimental facility, the animals were adapted to the animal facility for 5-7 days. 4.2 After the adaptation period, the animals were adapted to the tail oversleeve restrain for 3 days, and the tail oversleeve restrain was performed twice a day. After the last restrain adaptation, the basal blood pressure was measured, and the animals were randomly divided into groups according to the basal blood pressure. There was no significant difference between the average systolic blood pressure of animals in each group, and the number of animals in each group met the requirements of statistical testing and pharmacodynamic guidelines. 4.3 On the second day after grouping, the animals were administered according to experimental design and grouping (P.O, 5 mL/kg), and the systolic blood pressure (SBP), diastolic blood pressure (DBP), mean arterial pressure (MAP) and heart rate (HR) of the animals were measured before administration and at 1, 2, 4, 6, 8 and 24 h after administration using tail oversleeve method.
Statistical differences between groups were analyzed by Two-way ANOVA test. Among them, P<0.05 indicated a significant difference, and P<0.01 indicated an extremely significant difference.

T3 sequence (P10635 whole entry): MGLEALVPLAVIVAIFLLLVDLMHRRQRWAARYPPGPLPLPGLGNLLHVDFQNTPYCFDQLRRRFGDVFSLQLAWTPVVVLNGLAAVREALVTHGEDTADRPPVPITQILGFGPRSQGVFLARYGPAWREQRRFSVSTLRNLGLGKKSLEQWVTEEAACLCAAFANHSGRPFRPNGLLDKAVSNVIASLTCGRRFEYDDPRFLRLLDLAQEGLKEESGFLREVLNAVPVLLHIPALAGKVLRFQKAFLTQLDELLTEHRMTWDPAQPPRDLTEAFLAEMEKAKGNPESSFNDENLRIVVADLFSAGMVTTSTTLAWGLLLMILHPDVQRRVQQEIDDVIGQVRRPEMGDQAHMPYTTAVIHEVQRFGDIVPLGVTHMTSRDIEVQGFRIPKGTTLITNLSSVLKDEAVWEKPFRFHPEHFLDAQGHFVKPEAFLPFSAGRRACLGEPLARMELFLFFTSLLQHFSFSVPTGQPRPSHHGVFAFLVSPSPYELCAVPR
T1 sequence (P08684 whole entry): as the sequence (P08684 whole entry) above

`CCCCC1=NC2(CCCC2)C(=O)N1Cc1ccc(-c2ccccc2S(=O)(=O)Nc2noc(C)c2Br)c(COCC)c1` [Example 46, 2-[4-[(2-butyl-4-oxo-1,3-diazaspiro[4.4]non-1-en-3-yl)methyl]-2-(ethoxymethyl)phenyl]-N-(4-bromo-5-methyl-isoxazol-3-yl)benzsulfamide]: the IC50 was 16.7 µM in data set [1]; over 100 µM in [3]; over 100 µM in [5]; over 100 µM in data set [6]; over 100 µM in [7]. Further, the half-life at 1 μM in [2] came to 28.9 min; in [4] it was 22.2 min; in data set [8], 24.3 min. Also, the results for the Remaining rate in data set [2], in [4] and in data set [8] were 23.8%, 15.4% and 17.3%, respectively.
As to `[2H]C([2H])(OCC)c1cc(CN2C(=O)C3(CCCC3)N=C2CCCC)ccc1-c1ccccc1S(=O)(=O)Nc1noc(C)c1Cl` [Example 49, 4′-((2-butyl-4-oxo-1,3-diazospiro[4.4]non-1-en-3-yl)methyl)-N-(4-chloro-5-methylisoxazol-3-yl)-2′-(ethoxydeuteriummethyl)-[1,1′-biphenyl]-2-sulfonamide], the “blood pressure (systolic blood pressure, diastolic blood pressure, mean arterial pressure) compared with the vehicle group” value in data set [9] is on record as “significantly reduced blood pressure”. Further, the values for the half-life at 1 μM in data set [2], in data set [4] and in [8] were 26.2 min, 29.5 min and 24 min, respectively. The figures for the Remaining rate in data set [2], in data set [4] and in data set [8] were 30.7%, 23.9% and 17.1%, respectively.
